Test results: patent US20260325533A1, “CDK INHIBITOR COMPOUNDS” (ALEKSIA THERAPEUTICS, INC., priority 2023, published 2026)
Where two headings read alike, the source gives them in different places.

Experiments:
Format in all cases: biochemical
CDK2/CCNE1 = CDK2/CCNE1 (Homo sapiens, UniProt P24941); test: CDK2 homogeneous time-resolved fluorescence (HTRF) kinase assay; settings: CDK2/CCNE
How it was run: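 TR-FRET read-out (665 nm, or 665/615 ratio) of Eu-antibody detection of phospho-4E-BP1 (Thr37/46) ULight peptide. Enzyme 3 nM, ATP 1 mM, peptide 50 nM, 1% DMSO; 60 min reaction at 23 °C after 20 min compound preincubation. IC50 from 11-point half-log titrations, top typically 10 μM.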

CDK1/CCNB1 = CDK1/CCNB1 (Homo sapiens, UniProt P06493); test: CDK1 homogeneous time-resolved fluorescence (HTRF) kinase assay; settings: CDK1/CCNB
How it was run: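 HTRF assay with 0.5 nM CDK1/CCNB1, 1 mM ATP, 50 nM ULight-eIF4E-BP1 (Thr37/46) peptide; compound preincubated 20 min, reaction 60 min at 23 °C, EDTA stop, Eu-anti-phospho antibody detection. 11-point half-log titration from 10 μM, 1% DMSO; IC50 from 665 nm or 665/615 signal.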

CDK4/CCND3 = CDK4/CCND3 (Homo sapiens, UniProt P11802); test: CDK4 homogeneous time-resolved fluorescence (HTRF) kinase assay; settings: CDK4/CCND
How it was run: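 IC50 values were derived from 11-point half-log dilutions, usually starting at 10 μM. Compound was first held for 20 min at 23 °C with 1.5 nM CDK4/CCND3. 1 mM ATP and 50 nM ULight-eIF4E-BP1 (Thr37/46) substrate were then added for 60 min, and the TR-FRET 665 nm signal was measured after EDTA stop and Eu-anti-phospho-4E-BP1 detection.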

CDK6/CCND1 = CDK6/CCND1 (Homo sapiens, UniProt Q00534); test: CDK6 homogeneous time-resolved fluorescence (HTRF) kinase assay; settings: CDK6/CCND
How it was run: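 Recombinant CDK6/CCND1 (1 nM final) was preincubated with compound for 20 min at 23 °C in HEPES buffer with MgCl2, EGTA, DTT and Tween 20. Kinase reaction then ran 60 min at 23 °C with 1 mM ATP and 50 nM ULight-4E-BP1 (Thr37/46) peptide, and was stopped with EDTA.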

[1] = x = IC50 <25 nM, read-out: CDK2/CCNE IC50 (<25 nM)
[2] = x = IC50 <25 nM, read-out: CDK1/CCNB IC50 (<25 nM)
[3] = x = IC50 25-250 nM, read-out: CDK6/CCND IC50 (25-250 nM)
[4] = x = IC50 25-250 nM, read-out: CDK1/CCNB IC50 (25-250 nM)
[5] = x = IC50 25-250 nM, read-out: CDK4/CCND IC50 (25-250 nM)
[6] = x = IC50 >250 nM, read-out: CDK6/CCND IC50 (>250 nM column)
[7] = x = IC50 >250 nM, read-out: CDK4/CCND IC50 (>250 nM column)
[8] = x = IC50 25-250 nM, read-out: CDK2/CCNE IC50 (25-250 nM)
[9] = x = IC50 >250 nM, read-out: CDK1/CCNB IC50 (>250 nM column)

CDK6/CCND1, sequence (Q00534 whole entry): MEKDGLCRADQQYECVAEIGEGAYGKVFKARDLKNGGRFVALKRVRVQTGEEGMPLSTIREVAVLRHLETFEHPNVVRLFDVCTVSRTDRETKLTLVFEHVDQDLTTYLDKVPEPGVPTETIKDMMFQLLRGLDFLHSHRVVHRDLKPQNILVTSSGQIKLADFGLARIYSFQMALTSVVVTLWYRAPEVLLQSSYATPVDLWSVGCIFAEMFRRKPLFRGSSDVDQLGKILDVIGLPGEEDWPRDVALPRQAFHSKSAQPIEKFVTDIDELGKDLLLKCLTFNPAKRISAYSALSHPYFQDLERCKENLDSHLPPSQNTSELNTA
CDK6/CCND1, sequence (P24385 whole entry partner): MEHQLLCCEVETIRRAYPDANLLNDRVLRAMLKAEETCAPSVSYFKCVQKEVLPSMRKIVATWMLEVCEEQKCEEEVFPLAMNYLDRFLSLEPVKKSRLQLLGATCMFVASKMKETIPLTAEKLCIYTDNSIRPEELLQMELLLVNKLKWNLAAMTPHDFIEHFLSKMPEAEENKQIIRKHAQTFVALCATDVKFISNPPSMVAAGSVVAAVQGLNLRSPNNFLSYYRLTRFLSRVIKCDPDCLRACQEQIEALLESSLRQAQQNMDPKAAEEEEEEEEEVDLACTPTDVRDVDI
CDK4/CCND3, sequence (P11802 whole entry): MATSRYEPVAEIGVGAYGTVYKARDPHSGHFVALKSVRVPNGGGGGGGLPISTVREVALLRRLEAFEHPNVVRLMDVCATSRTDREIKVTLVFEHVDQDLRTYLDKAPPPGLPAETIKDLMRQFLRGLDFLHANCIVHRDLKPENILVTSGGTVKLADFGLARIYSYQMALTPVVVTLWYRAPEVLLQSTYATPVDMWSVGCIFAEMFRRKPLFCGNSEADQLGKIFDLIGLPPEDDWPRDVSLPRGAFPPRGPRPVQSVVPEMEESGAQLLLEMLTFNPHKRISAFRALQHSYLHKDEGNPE
CDK4/CCND3, sequence (P30281 whole entry partner): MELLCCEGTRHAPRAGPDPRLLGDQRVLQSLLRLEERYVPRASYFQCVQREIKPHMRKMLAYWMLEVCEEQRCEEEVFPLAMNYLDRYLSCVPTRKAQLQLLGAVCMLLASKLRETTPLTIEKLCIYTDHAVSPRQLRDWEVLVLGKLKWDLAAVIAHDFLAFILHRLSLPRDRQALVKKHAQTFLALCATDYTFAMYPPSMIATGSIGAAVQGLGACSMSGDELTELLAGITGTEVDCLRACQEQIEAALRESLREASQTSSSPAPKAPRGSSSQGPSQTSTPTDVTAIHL
CDK1/CCNB1, sequence (P06493 whole entry): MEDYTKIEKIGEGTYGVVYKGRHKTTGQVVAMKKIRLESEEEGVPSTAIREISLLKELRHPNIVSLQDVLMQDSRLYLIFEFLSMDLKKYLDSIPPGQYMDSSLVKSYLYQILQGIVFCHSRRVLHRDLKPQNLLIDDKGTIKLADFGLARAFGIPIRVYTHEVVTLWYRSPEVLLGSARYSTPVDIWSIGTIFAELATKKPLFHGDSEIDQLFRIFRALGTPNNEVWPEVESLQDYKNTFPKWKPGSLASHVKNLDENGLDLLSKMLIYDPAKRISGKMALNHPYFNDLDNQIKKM
CDK1/CCNB1, sequence (P14635 whole entry partner): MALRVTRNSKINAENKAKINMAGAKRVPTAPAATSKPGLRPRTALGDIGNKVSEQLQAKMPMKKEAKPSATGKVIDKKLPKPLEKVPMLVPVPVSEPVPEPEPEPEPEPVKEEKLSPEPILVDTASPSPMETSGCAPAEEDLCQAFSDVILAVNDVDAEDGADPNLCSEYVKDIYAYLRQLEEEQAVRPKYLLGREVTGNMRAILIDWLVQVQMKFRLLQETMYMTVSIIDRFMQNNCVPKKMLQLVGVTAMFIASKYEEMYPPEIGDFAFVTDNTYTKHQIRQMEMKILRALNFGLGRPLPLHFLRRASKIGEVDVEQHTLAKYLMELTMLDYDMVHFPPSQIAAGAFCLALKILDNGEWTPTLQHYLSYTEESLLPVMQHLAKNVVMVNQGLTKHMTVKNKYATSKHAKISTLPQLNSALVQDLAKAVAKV

Row | Compound | IC50 (CDK2/CCNE1; [1]) [nM] | IC50 (CDK1/CCNB1; [2]) [nM] | IC50 (CDK4/CCND3; x = IC50 <25 nM, read-out: CDK4/CCND IC50 (<25 nM)) [nM] | IC50 (CDK6/CCND1; [3]) [nM] | IC50 (CDK1/CCNB1; [4]) [nM] | IC50 (CDK4/CCND3; [5]) [nM] | IC50 (CDK6/CCND1; [6]) [nM] | IC50 (CDK4/CCND3; [7]) [nM] | IC50 (CDK2/CCNE1; [8]) [nM] | IC50 (CDK1/CCNB1; [9]) [nM] | IC50 (CDK2/CCNE1; x = IC50 >250 nM, read-out: CDK2/CCNE IC50 (>250 nM column)) [nM]
1 | CC1(C)C(=O)Nc2cc(C#Cc3nccc4cnc(Nc5ccc(S(=O)(=O)NC6CCNCC6)cc5)cc34)ccc21 [Ex 442, 4-((5-((3,3-dimethyl-2-oxoindolin-6-yl)ethynyl)-2,6-naphthyridin-3-yl)amino)-N-(piperidin-4-yl)benzenesulfonamide] | < 25 | < 25 | < 25 | 25 to 250 |  |  |  |  |  |  | 
2 | CC1(C)C(=O)Nc2cc(C#Cc3nccc4cnc(Nc5ccc(S(=O)(=O)NC6CCOCC6)cc5)cc34)ccc21 [Ex 443, 4-((5-((3,3-dimethyl-2-oxoindolin-6-yl)ethynyl)-2,6-naphthyridin-3-yl)amino)-N-(tetrahydro-2H-pyran-4-yl)benzenesulfonamide] | < 25 |  |  |  | 25 to 250 | 25 to 250 | > 250 |  |  |  | 
3 | CC1(C)C(=O)Nc2cc(C#Cc3nccc4cnc(Nc5ccc(S(=O)(=O)C6CC6)cc5)cc34)ccc21 [Ex 444, 6-((7-((4-(cyclopropylsulfonyl)phenyl)amino)-2,6-naphthyridin-1-yl)ethynyl)-3,3-dimethylindolin-2-one] | < 25 | < 25 |  |  |  | 25 to 250 | > 250 |  |  |  | 
4 | Cc1cc(S(N)(=O)=O)ccc1Nc1cc2c(C#Cc3cccnc3N)nccc2cn1 [Ex 448, 4-((5-((2-aminopyridin-3-yl)ethynyl)-2,6-naphthyridin-3-yl)amino)-3-methylbenzenesulfonamide] | < 25 |  |  |  | 25 to 250 |  | > 250 | > 250 |  |  | 
5 | CC1(C)C(=O)Nc2cc(C#Cc3nccc4cnc(Nc5ccc(S(=O)(=O)NC6CCC6)cc5)cc34)ccc21 [Ex 457, N-cyclobutyl-4-((5-((3,3-dimethyl-2-oxoindolin-6-yl)ethynyl)-2,6-naphthyridin-3-yl)amino)benzenesulfonamide] | < 25 |  |  |  | 25 to 250 |  | > 250 | > 250 |  |  | 
6 | CCS(=O)(=O)c1ccc(Nc2cc3c(C#Cc4ccc5c(c4)NC(=O)C5(C)C)nccc3cn2)cc1 [Ex 459, 6-((7-((4-(ethylsulfonyl)phenyl)amino)-2,6-naphthyridin-1-yl)ethynyl)-3,3-dimethylindolin-2-one] | < 25 |  |  |  | 25 to 250 | 25 to 250 | > 250 |  |  |  | 
7 | Nc1ncccc1C#Cc1nccc2cnc(Nc3ccc(S(N)(=O)=O)cc3F)cc12 [Ex 466, 4-((5-((2-aminopyridin-3-yl)ethynyl)-2,6-naphthyridin-3-yl)amino)-3-fluorobenzenesulfonamide] | < 25 |  |  |  |  |  | > 250 | > 250 |  | > 250 | 
8 | CNS(=O)(=O)c1ccc(Nc2cc3c(C#Cc4cccnc4N)nccc3cn2)c(F)c1 [Ex 467, 4-((5-((2-aminopyridin-3-yl)ethynyl)-2,6-naphthyridin-3-yl)amino)-3-fluoro-N-methylbenzenesulfonamide] | < 25 |  |  |  | 25 to 250 |  | > 250 | > 250 |  |  | 
9 | Nc1ncccc1C#Cc1nccc2cnc(Nc3ccc(S(=O)(=O)Nc4nccc(N5CCNCC5)n4)cc3)cc12 [Ex 468, 4-((5-((2-aminopyridin-3-yl)ethynyl)-2,6-naphthyridin-3-yl)amino)-N-(4-(piperazin-1-yl)pyrimidin-2-yl)benzenesulfonamide] |  |  |  |  |  |  | > 250 | > 250 | 25 to 250 | > 250 | 

Next, values leading:

Row | IC50 (CDK2/CCNE1; [1]) [nM] | IC50 (CDK1/CCNB1; [2]) [nM] | IC50 (CDK4/CCND3; x = IC50 <25 nM, read-out: CDK4/CCND IC50 (<25 nM)) [nM] | IC50 (CDK6/CCND1; [3]) [nM] | IC50 (CDK1/CCNB1; [4]) [nM] | IC50 (CDK4/CCND3; [5]) [nM] | IC50 (CDK6/CCND1; [6]) [nM] | IC50 (CDK4/CCND3; [7]) [nM] | IC50 (CDK2/CCNE1; [8]) [nM] | IC50 (CDK1/CCNB1; [9]) [nM] | IC50 (CDK2/CCNE1; x = IC50 >250 nM, read-out: CDK2/CCNE IC50 (>250 nM column)) [nM] | Compound
10 | < 25 |  |  | 25 to 250 | 25 to 250 | 25 to 250 |  |  |  |  |  | CS(=O)(=O)c1ccc(Nc2cc3c(C#Cc4ccc5c(c4)NC(=O)C54CC4)nccc3cn2)cc1 [Ex 445, 6'-((7-((4-(methylsulfonyl)phenyl)amino)-2,6-naphthyridin-1-yl)ethynyl)spiro[cyclopropane-1,3'-indolin]-2'-one]
11 | < 25 |  |  |  | 25 to 250 | 25 to 250 | > 250 |  |  |  |  | CCNS(=O)(=O)c1ccc(Nc2cc3c(C#Cc4cccnc4N)nccc3cn2)cc1 [Ex 447, 4-((5-((2-aminopyridin-3-yl)ethynyl)-2,6-naphthyridin-3-yl)amino)-N-ethylbenzenesulfonamide]
12 |  |  |  |  |  |  | > 250 | > 250 | 25 to 250 | > 250 |  | Cn1cc(NS(=O)(=O)c2ccc(Nc3cc4c(C#Cc5cccnc5N)nccc4cn3)cc2)cn1 [Ex 450, 4-((5-((2-aminopyridin-3-yl)ethynyl)-2,6-naphthyridin-3-yl)amino)-N-(1-methyl-1H-pyrazol-4-yl)benzenesulfonamide]
13 | < 25 |  |  |  | 25 to 250 |  | > 250 | > 250 |  |  |  | CC(C)S(=O)(=O)c1ccc(Nc2cc3c(C#Cc4ccc5c(c4)NC(=O)C5(C)C)nccc3cn2)cc1 [Ex 458, 6-((7-((4-(isopropylsulfonyl)phenyl)amino)-2,6-naphthyridin-1-yl)ethynyl)-3,3-dimethylindolin-2-one]
14 | < 25 |  |  |  |  |  | > 250 | > 250 |  | > 250 |  | CS(=O)(=O)c1ccc(Nc2cc3c(C#Cc4ccc5c(c4)NC(=O)C54CCC4)nccc3cn2)cc1 [Ex 460, 6'-((7-((4-(methylsulfonyl)phenyl)amino)-2,6-naphthyridin-1-yl)ethynyl)spiro[cyclobutane-1,3'-indolin]-2'-one]
15 | < 25 |  |  |  |  |  | > 250 | > 250 |  | > 250 |  | CCC1(CC)C(=O)Nc2cc(C#Cc3nccc4cnc(Nc5ccc(S(C)(=O)=O)cc5)cc34)ccc21 [Ex 461, 3,3-diethyl-6-((7-((4-(methylsulfonyl)phenyl)amino)-2,6-naphthyridin-1-yl)ethynyl)indolin-2-one]
16 | < 25 |  |  |  | 25 to 250 | 25 to 250 | > 250 |  |  |  |  | CNS(=O)(=O)c1ccc(Nc2cc3c(C#Cc4cccnc4N)nccc3cn2)cc1 [Ex 469, 4-((5-((2-aminopyridin-3-yl)ethynyl)-2,6-naphthyridin-3-yl)amino)-N-methylbenzenesulfonamide]
17 |  |  |  |  |  |  | > 250 | > 250 | 25 to 250 | > 250 |  | CS(=O)(=O)c1ccc(Nc2cc3c(C#Cc4cnn5ccccc45)nccc3cn2)cc1 [Ex 478, N-(4-(methylsulfonyl)phenyl)-5-(pyrazolo[1,5-a]pyridin-3-ylethynyl)-2,6-naphthyridin-3-amine]
18 | < 25 |  |  |  | 25 to 250 | 25 to 250 | > 250 |  |  |  |  | CC1(C)C(=O)Nc2cc(C#Cc3nccc4cnc(Nc5ccc(S(C)(=O)=O)cc5)cc34)ccc21 [Ex 486, 3,3-dimethyl-6-((7-((4-(methylsulfonyl)phenyl)amino)-2,6-naphthyridin-1-yl)ethynyl)indolin-2-one]
19 |  |  |  |  |  |  | > 250 | > 250 | 25 to 250 | > 250 |  | CS(=O)(=O)c1ccc(Nc2cc3c(C#Cc4cncnc4N)nccc3cn2)cc1 [Ex 492, 5-((4-aminopyrimidin-5-yl)ethynyl)-N-(4-(methylsulfonyl)phenyl)-2,6-naphthyridin-3-amine]
20 |  |  |  |  |  |  | > 250 | > 250 |  | > 250 | > 250 | COC(=O)c1ccc2c(C#Cc3nccc4cnc(Nc5ccc(S(C)(=O)=O)cc5)cc34)n[nH]c2c1 [Ex 498, methyl 3-((7-((4-(methylsulfonyl)phenyl)amino)-2,6-naphthyridin-1-yl)ethynyl)-1H-indazole-6-carboxylate]
21 |  |  |  |  |  |  | > 250 | > 250 | 25 to 250 | > 250 |  | COc1ccc(C#Cc2nccc3cnc(Nc4ccc(S(C)(=O)=O)cc4)cc23)cc1F [Ex 499, 5-((3-fluoro-4-methoxyphenyl)ethynyl)-N-(4-(methylsulfonyl)phenyl)-2,6-naphthyridin-3-amine]
22 |  |  |  |  |  |  | > 250 | > 250 | 25 to 250 | > 250 |  | Cc1c(C#Cc2nccc3cnc(Nc4ccc(S(C)(=O)=O)cc4)cc23)ccnc1Cl [Ex 500, 5-((2-chloro-3-methylpyridin-4-yl)ethynyl)-N-(4-(methylsulfonyl)phenyl)-2,6-naphthyridin-3-amine]
